According to BindingDB's records for doi:10.1021/jm00100a015 (Centre De Neurochimie Du Cnrs, 1992):
pIC50: −log10 of the molar value.

Target: GABA-A receptor (Rattus norvegicus)
Assay: Affinity for gamma-aminobutyric-acid A receptor measured by its ability to displace [3H]gabazine antagonist from rat brain preparations.

Structure (SMILES)	pIC50
Cc1cc(-c2ccccc2)nn(CCCC(=O)O)c1=N	6.10
N=c1ccc(-c2ccsc2)nn1Cc1cc(=O)[nH]o1	7.06
